This is an account of results in US20110060156A1, “Pyruvate Derivatives with Neuroprotective Effect, Process for Preparing the Same and Pharmaceutical Composition Comprising the Same” (S.H. PHARMA., LTD., priority 2008, published 2011).

Each structure is given as a SMILES string. Structures can show the parent of a compound that is named as a salt.

The test system of series [1] is model of focal ischemic stroke (middle cerebral artery occlusion, MCAO). Description: Cerebral infarction inhibition in animal model of focal ischemic stroke (MCAO 1 hour, TTC staining, infarct volume). It is filed as in vivo, rat. The note with it: for inhibition effect of cerebral infarction: 30 minutes before MCAO (1 hour). How it is done:
A model of focal ischemic stroke in the rat according to the Longa's method (1989) was used. The animal model of stroke was established by occluding the middle cerebral artery (MCA) for 1 hour using nylon suture (middle cerebral artery occlusion, MCAO). In order to investigate the effect of pyruvate derivatives according to the present invention on cerebral ischemia, a rat was decapitated after reperfusion. The whole brain was sliced into 2 mm-thick coronal slices. The slices were immediately stained by immersing in 1% 2,3,5-triphenyl tetrazolium chloride (TTC). After keeping in 4% paraformaldehyde solution at 37° C. for 15 minutes, the brain slices were subjected to measurement and analysis using Quantity One software (Bio-Rad, Hercules, Calif., USA).

The test system of series [2] is stroke animal model (ischemia-reperfusion). To be noted: cited from earlier work.
Setting [3] is: 10 mg/kg intravenously, 6 hours after reperfusion.
Where [4] appears, read: 1 mg/kg intravenously, 6 hours after reperfusion.
The mark [5] stands for this setting: 1 mg/kg intravenously, 12 hours after reperfusion.
Setting [6] is: 5 mg/kg intravenously, 6 hours after reperfusion.
Where [7] appears, read: 5 mg/kg intravenously, 12 hours after reperfusion.
Where [8] appears, read: 10 mg/kg intravenously, 12 hours after reperfusion.

As a reminder, the melting point is the temperature, or range, at which the solid turns liquid. With `CC(=O)C(=O)Oc1cc(C(F)(F)F)ccc1C(=O)O` (as salt: potassium) [2-(2-oxopropanoyloxy)-4-(trifluoromethyl)benzoic acid], the melting point was determined as 163 °C.
For `CC(=O)C(=O)NCCC(Oc1ccc(C(F)(F)F)cc1)c1ccccc1` (stereo not shown) [2-oxo-N-(3-phenyl-3-(4-(trifluoromethyl)phenoxy)propyl)propanamide], in series [1] (setting [3]), the “infarct volume reduced to, as compared to the control group” value is 58.7%.
Same read-out and setting: for `CC(=O)C(=O)N(C)CCC(Oc1ccc(C(F)(F)F)cc1)c1ccccc1` (stereo not shown) [N-methyl-2-oxo-N-(3-phenyl-3-(4-(trifluoromethyl)phenoxy)propyl)propanamide] the value was 16.0%.
For the compound `CC(=O)C(=O)Oc1ccc(NCc2c(F)c(F)c(C(F)(F)F)c(F)c2F)cc1C(=O)O` [2-(2-oxopropanoyloxy)-5-(2,3,5,6-tetrafluoro-4-(trifluoromethyl)benzylamino)benzoic acid], the melting point amounted to 128 °C. Further, the “inhibition effect of cerebral infarction” value in series [1] (1 mg/kg intravenously) stood at 20.2%. The “change in the infarct volume” value in series [1] (setting [4]) is recorded as “no change”. Also, the “change in the infarct volume” value in series [1] (setting [5]) is “no change”. Besides, in series [1] (5 mg/kg intravenously), the “inhibition effect of cerebral infarction” value is recorded as 90.9%. The “infarct volume reduced to, as compared to the control group” value in series [1] (setting [6]) was found to be 24.5%. In series [1] (setting [7]), the “infarct volume reduced to, as compared to the control group” value came to 56.8%. Besides, the “inhibition effect of cerebral infarction” value in series [1] (10 mg/kg intravenously) is 88.4%. In addition, the “infarct volume reduced to, as compared to the control group” value in series [1] (setting [3]) turned out to be 33.3%. Also, the “infarct volume reduced to, as compared to the control group” value in series [1] (setting [8]) stood at 62.4%.
As for `CC(=O)C(=O)Oc1ccccc1C(=O)O` [2-(2-oxopropanoyloxy)benzoic acid], the entries for the “inhibition effect of cerebral infarction” value in series [1] (1 mg/kg intravenously), in series [1] (5 mg/kg intravenously) and in series [1] (10 mg/kg intravenously) were 42.0%, 90.2% and 89.5%, respectively. The “change in the infarct volume” value in series [1] (setting [4]) and in series [1] (setting [5]) was “no change” each time. Besides, the “infarct volume reduced to, as compared to the control group” value in series [1] (setting [6]) amounted to 47.5%; in series [1] (setting [7]), 57.4%; in series [1] (setting [3]), 26.6%; in series [1] (setting [8]), 64.3%.
As to `CCOC(=O)C(C)=O` [ethyl pyruvate], the “infarct size reduced to” value in series [2] (abdominally administered within 12 hours after ischemia-reperfusion) was at most 50%. In addition, the “infarct size reduced by” value in series [2] (treatment within 24 hours) is recorded as “about 20%”.
For `CC(=O)C(=O)Oc1cc(C(F)(F)F)ccc1C(=O)O` [2-(2-oxopropanoyloxy)-4-(trifluoromethyl)benzoic acid], in series [1] (5 mg/kg intravenously, MCAO 1 hour, time not stated in b180 (FIG. 8: 6 hours following MCAO)), the “inhibition effect of cerebral infarction as compared to the control group” value is 71.3%.
